Data: US7192925B2, “Scorpion peptide as hypotensive agent” (Universidade Federal de Minas Gerais, priority 2002, dated 2007)
Entries after “also recorded” stand apart in the source; their conditions may differ.

What was measured:
[1] = tested on: hypotensive effect of bradykinin (average arterial pressure) in Wistar rats; assay: Bradykinin potentiation in vivo: hypotensive effect of bradykinin re-evaluated after TsHpt-I injection; parameters: species or system rat
Procedure: (§1) Wistar rats, weighting 300±20 g were used, waked or anesthetized, to assess the hypotensive properties of peptides. Bradykinin (Bachem, Co) and TsHpt-I were dissolved in sterile isotonic saline (0.9% NaCl) immediately before use.
(§2) “In vivo” experiments using waked animals: a day before the experiment, rats were anesthetized with ether and a polyethylene catheter (PE-10 connected to PE-50) was inserted into the abdominal aorta through the femoral artery for blood pressure measurements. For intravenous injections, a polyethylene cannula was implanted into the femoral vein. Arterial blood pressure and heart rate were monitored by a solid-state strain-gauge transducer. All variables were recorded continuously on a computer through a data acquisition system, Biopac®, and processed by the Acknowledge® software.
(§3) Bradykinin, 1 μg or 2 μg, was injected and the response measured as variation on average arterial pressure. Hypotensive effect of TsHpt-I (10 μg) alone was measured after Bradykinin. The hypotensive effect of bradykinin (1 μg) was then re-evaluated after 5 and 10 minutes following the injection of TsHpt-I.
“In vivo” experiments using anesthetized rats: the arterial blood pressure and heart rate were monitored continuously after insertion of catheters as described above. Rats were previously anesthetized with urethane, 1.2 mg/kg, (via i.p.).
The hypotensive effect of intravenous injections of bradykinin, 1 μg or 2 μg was measured, followed by the measurement of hypotensive effect of TsHpt-I (10 μg). The hypotensive effect of the bradykinin (1 μg) was then re-evaluated after 1, 5, 10, 15, 20 and 30 minutes.
The potentiating unit—i.e., the amount of peptide that is able to double the activity of a single dose of bradykinin—of TsHpt-I was 10 μg. At this dose TsHpt-I was able to double the activity of a single dose of bradykinin for almost 20 minutes in anesthetized animals.

[2] = tested on: arterial blood pressure of Wistar rats; assay: Hypotensive activity of the peptide in biological assays on rats; assay type: in vivo, rat; conditions: native and synthetic peptide
Procedure: as §1, §2, §3
“In vivo” experiments using anesthetized rats: the arterial blood pressure and heart rate were monitored continuously after insertion of catheters as described above. Rats were previously anesthetized with urethane, […], (via i.p.). […]

TsHpt-I (AEIDFSGIPEDIIKQIKETNAKPPA; listed as Tityus serrulatus)
time for which TsHpt-I was able to double the activity of a single dose of bradykinin ([1]; TsHpt-I 10 μg, anesthetized animals (urethane)): ~20 min | potentiation of bradykinin effects (in words) ([1]; rat, in vivo): able to potentiate bradykinin effects in a strong and long-lasting manner | potentiating unit (amount of peptide that is able to double the activity of a single dose of bradykinin) ([1]; waked and anesthetized rats, intravenous injection, bradykinin 1 μg): 10 µg | hypotensive activity / ability to decrease blood pressure (in words) [2]: strong ability to decrease blood pressure; also recorded: same hypotensive activity as the native molecule
